*1 amine or outer side, *2 acyl side, *3 side chain or, on linkers, in order; H or OH if unused. Where a SMILES comes first, the peptide text is derived from it. Side-chain parts run from the residue outwards. The star is where a group is joined. C18 diacid = O=C(O)CCCCCCCCCCCCCCCCC(=O)*; γGlu = O=C(O)[C@H](CCC(=O)[*:2])N[*:1]; Isovaleryl = CC(C)CC(=O)*; AEEA = NCCOCCOCC(=O)O

For this experiment, the target named is T1, Human Neuropeptide Y2 Receptor (Homo sapiens, UniProt P49146).
T1 construct: purchased CHEMICON HTS066M
T1 sequence (P49146 1-381): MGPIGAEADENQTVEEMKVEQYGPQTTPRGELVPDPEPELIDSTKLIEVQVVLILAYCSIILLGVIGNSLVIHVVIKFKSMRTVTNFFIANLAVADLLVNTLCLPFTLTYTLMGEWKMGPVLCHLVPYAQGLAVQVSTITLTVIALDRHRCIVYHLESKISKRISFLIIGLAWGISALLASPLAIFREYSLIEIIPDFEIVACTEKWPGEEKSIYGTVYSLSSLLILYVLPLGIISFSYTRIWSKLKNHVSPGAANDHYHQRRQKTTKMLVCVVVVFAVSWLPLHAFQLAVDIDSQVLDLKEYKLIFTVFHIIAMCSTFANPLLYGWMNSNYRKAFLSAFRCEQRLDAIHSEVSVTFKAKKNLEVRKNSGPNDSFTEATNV
Description: Radioligand binding competition assay (RLB). As to conditions: Table 3; human 125I-PYY (1-36) 0.02 nM, Y2 receptor membranes; read-out: Ki. On the procedure:
The filtration RLB assay was carried out in 96-well plates in a final volume of 100 μl per well. Freeze-dried test peptides were dissolved in 100% dimethyl sulfoxide (DMSO) to stock solutions of 1 mM and serial dilutions were performed in assay buffer (50 mM HEPES, 5 mM MgCl2, 1 mM CaCl2), pH 7.4) containing 0.2% ovalbumin. […] Next, 80 μL membranes (HTS066M, ChemiSCREEN™ Human Neuropeptide Y2 Receptor Membrane Preparation, CHEMICON) were added to each well to give a final protein concentration of 0.5 μg/well. The plates were sealed and incubated at room temperature for 2 hours in a plate shaker set at 400 rpm. The incubation was stopped by vacuum filtration onto 0.5% poly-ethylene amine (PEI) presoaked GF/C filters using a 96-well FilterMate™ harvester (Perkin Elmer) followed by four washes with 300 μl/well ice-cold wash buffer (50 mM HEPES, 500 mM NaCl, pH7.4). Filter plates were then dried for 60 min at room temperature and the bottom of the plates was sealed with backing tape UniFilter-96. Finally, 50 μl/well scintillation counter cocktail (Microscint20, Packard) was added and the radioactivity was counted in the Packard TopCount NXT scintillation counter. IC50 values (the half maximal inhibitory concentration of the agonist) were calculated by nonlinear regression analysis of sigmoidal dose-response curves.
With `CC(C)CC(=O)N[C@@H](C)C(=O)N1CCC[C@H]1C(=O)N[C@@H](CCC(=O)O)C(=O)N[C@@H](CCCCNC(=O)COCCOCCNC(=O)COCCOCCNC(=O)CC[C@H](NC(=O)CCCCCCCCCCCCCCCCC(=O)O)C(=O)O)C(=O)N[C@@H](C)C(=O)N[C@@H](CCC(=O)O)C(=O)N[C@@H](CCC(=O)O)C(=O)N[C@@H](CC(=O)O)C(=O)N[C@@H](C)C(=O)N[C@@H](CO)C(=O)N1CCC[C@H]1C(=O)N[C@@H](CCC(=O)O)C(=O)N[C@@H](CCC(=O)O)C(=O)N[C@@H](CC(C)C)C(=O)N[C@@H](CCC(N)=O)C(=O)N[C@@H](CCC(N)=O)C(=O)N[C@@H](Cc1ccc(O)cc1)C(=O)N[C@@H](Cc1ccc(O)cc1)C(=O)N[C@H](C(=O)N[C@@H](CO)C(=O)N[C@@H](CC(C)C)C(=O)N[C@@H](CCCNC(=N)N)C(=O)N[C@@H](Cc1c[nH]cn1)C(=O)N[C@@H](Cc1ccc(O)cc1)C(=O)N[C@@H](Cc1ccc(O)cc1)C(=O)N[C@@H](CC(N)=O)C(=O)N[C@@H](Cc1c[nH]c2ccccc12)C(=O)N[C@@H](CC(C)C)C(=O)N[C@H](C(=O)N[C@@H](CCCNC(=N)N)C(=O)N[C@@H](CCC(N)=O)C(=O)N[C@@H](CCCNC(=N)N)C(=O)N[C@@H](Cc1ccc(O)cc1)C(N)=O)[C@@H](C)O)C(C)C` [Compound 144, N{alpha-4}-(3-methylbutanoyl)-N{epsilon-7}-[2-(2-{2-[2-(2-{2-[(4S)-4-carboxy-4-(17-carboxyheptadecanamido)butanamido]ethoxy}ethoxy)acetamido]ethoxy}ethoxy)acetamido]-[4A,7K,8A,9E,18Q,19Q,22V,28Y,30W,31L]hPYY (4-36)] (Isovaleryl-APEK([AEEA-AEEA-γGlu-C18 diacid])AEEDASPEELQQYYVSLRHYYNWLTRQRY-NH2), the Ki came to 8.92 nM. Turning to `CC(C)CC(=O)N[C@@H](C)C(=O)N1CCC[C@H]1C(=O)N[C@@H](CCC(=O)O)C(=O)N[C@@H](CCCCNC(=O)COCCOCCNC(=O)COCCOCCNC(=O)CC[C@H](NC(=O)CCCCCCCCCCCCCCCCC(=O)O)C(=O)O)C(=O)N1CCC[C@H]1C(=O)N[C@@H](CCC(=O)O)C(=O)N[C@@H](CCC(=O)O)C(=O)N[C@@H](CC(=O)O)C(=O)N[C@@H](C)C(=O)N[C@@H](C)C(=O)N1CCC[C@H]1C(=O)N[C@@H](CCC(=O)O)C(=O)N[C@@H](CCC(=O)O)C(=O)N[C@@H](CC(C)C)C(=O)N[C@@H](CCC(N)=O)C(=O)N[C@@H](CCCNC(=N)N)C(=O)N[C@@H](Cc1ccc(O)cc1)C(=O)N[C@@H](Cc1ccc(O)cc1)C(=O)N[C@H](C(=O)N[C@@H](CCC(=O)O)C(=O)N[C@@H](CC(C)C)C(=O)N[C@@H](CCCNC(=N)N)C(=O)N[C@@H](Cc1c[nH]cn1)C(=O)N[C@@H](Cc1ccc(O)cc1)C(=O)N[C@@H](Cc1ccc(O)cc1)C(=O)N[C@@H](CC(N)=O)C(=O)N[C@@H](Cc1c[nH]c2ccccc12)C(=O)N[C@@H](CC(C)C)C(=O)N[C@H](C(=O)N[C@@H](CCCNC(=N)N)C(=O)N[C@@H](CCC(N)=O)C(=O)N[C@@H](CCCNC(=N)N)C(=O)N[C@@H](Cc1ccc(O)cc1)C(N)=O)[C@@H](C)O)C(C)C` [Compound 20, N{alpha-4}-(3-methylbutanoyl)-N{epsilon-7}-[2-(2-{2-[2-(2-{2-[(4S)-4-carboxy-4-(17-carboxyheptadecanamido)butanamido]ethoxy}ethoxy)acetamido]ethoxy}ethoxy)acetamido]-[4A,7K,9E,13A,18Q,22V,23E,28Y,30W,31L]hPYY (4-36)], the Ki was 2.57 nM. Take `CC(C)CC(=O)N[C@@H](C)C(=O)N1CCC[C@H]1C(=O)N[C@@H](CCC(=O)O)C(=O)N[C@@H](CCCCNC(=O)COCCOCCNC(=O)COCCOCCNC(=O)CC[C@H](NC(=O)CCCCCCCCCCCCCCCCC(=O)O)C(=O)O)C(=O)N[C@@H](C)C(=O)N[C@@H](CCC(=O)O)C(=O)N[C@@H](CCC(=O)O)C(=O)N[C@@H](CC(=O)O)C(=O)N[C@@H](C)C(=O)N[C@@H](CO)C(=O)N1CCC[C@H]1C(=O)N[C@@H](CCC(=O)O)C(=O)N[C@@H](CCC(=O)O)C(=O)N[C@@H](CC(C)C)C(=O)N[C@@H](CCC(=O)O)C(=O)N[C@@H](CCC(N)=O)C(=O)N[C@@H](Cc1ccc(O)cc1)C(=O)N[C@@H](Cc1ccc(O)cc1)C(=O)N[C@H](C(=O)N[C@@H](CO)C(=O)N[C@@H](CC(C)C)C(=O)N[C@@H](CCCNC(=N)N)C(=O)N[C@@H](Cc1c[nH]cn1)C(=O)N[C@@H](Cc1ccc(O)cc1)C(=O)N[C@@H](Cc1ccc(O)cc1)C(=O)N[C@@H](CC(N)=O)C(=O)N[C@@H](Cc1c[nH]c2ccccc12)C(=O)N[C@@H](CC(C)C)C(=O)N[C@H](C(=O)N[C@@H](CCCNC(=N)N)C(=O)N[C@@H](CCC(N)=O)C(=O)N[C@@H](CCCNC(=N)N)C(=O)N[C@@H](Cc1ccc(O)cc1)C(N)=O)[C@@H](C)O)C(C)C` [Compound 227, N{alpha-4}-(3-methylbutanoyl)-N{epsilon-7}-[2-(2-{2-[2-(2-{2-[(4S)-4-carboxy-4-(17-carboxyheptadecanamido)butanamido]ethoxy}ethoxy)acetamido]ethoxy}ethoxy)acetamido]-[4A,7K,8A,9E,18E,19Q,22V,28Y,30W,31L]hPYY (4-36)] (Isovaleryl-APEK([AEEA-AEEA-γGlu-C18 diacid])AEEDASPEELEQYYVSLRHYYNWLTRQRY-NH2): the Ki amounted to 12.3 nM. On to `CC(C)CC(=O)N[C@@H](C)C(=O)N1CCC[C@H]1C(=O)N[C@@H](CCC(=O)O)C(=O)N[C@@H](CCCCNC(=O)COCCOCCNC(=O)COCCOCCNC(=O)CC[C@H](NC(=O)CCCCCCCCCCCCCCCCC(=O)O)C(=O)O)C(=O)N1CCC[C@H]1C(=O)N[C@@H](CCC(=O)O)C(=O)N[C@@H](CCC(=O)O)C(=O)N[C@@H](CCC(=O)O)C(=O)N[C@@H](C)C(=O)N[C@@H](C)C(=O)N1CCC[C@H]1C(=O)N[C@@H](CCC(=O)O)C(=O)N[C@@H](CCC(=O)O)C(=O)N[C@@H](CC(C)C)C(=O)N[C@@H](CCC(N)=O)C(=O)N[C@@H](CCCNC(=N)N)C(=O)N[C@@H](Cc1ccc(O)cc1)C(=O)N[C@@H](Cc1ccc(O)cc1)C(=O)N[C@H](C(=O)N[C@@H](CO)C(=O)N[C@@H](CC(C)C)C(=O)N[C@@H](CCCNC(=N)N)C(=O)N[C@@H](Cc1c[nH]cn1)C(=O)N[C@@H](Cc1ccc(O)cc1)C(=O)N[C@@H](Cc1ccc(O)cc1)C(=O)N[C@@H](CC(N)=O)C(=O)N[C@@H](Cc1c[nH]c2ccccc12)C(=O)N[C@@H](CC(C)C)C(=O)N[C@H](C(=O)N[C@@H](CCCNC(=N)N)C(=O)N[C@@H](CCC(N)=O)C(=O)N[C@@H](CCCNC(=N)N)C(=O)N[C@@H](Cc1ccc(O)cc1)C(N)=O)[C@@H](C)O)C(C)C` [Compound 219, N{alpha-4}-(3-methylbutanoyl)-N{epsilon-7}-[2-(2-{2-[2-(2-{2-[(4S)-4-carboxy-4-(17-carboxyheptadecanamido)butanamido]ethoxy}ethoxy)acetamido]ethoxy}ethoxy)acetamido]-[4A,7K,9E,11E,13A,18Q,22V,28Y,30W,31L]hPYY (4-36)], for which the Ki was found to be 7.6 nM.

One may read the Ki as a measure of affinity in units of concentration, obtained from inhibition or displacement.

The values above are taken from patent US12559529B2, “NPY2 receptor agonists” (Boehringer Ingelheim International GmbH, priority 2019, dated 2026).
